The target of assay [1] is T1, cloned human μ opioid receptor (Homo sapiens (Human), UniProt P35372). The assay is described as follows: [3H]diprenorphine receptor binding, μ opioid receptor. The conditions noted are these: inhibition of [3H]diprenorphine binding; Cheng-Prusoff correction of IC50. The method, then: (§1) IC50 values were obtained by nonlinear analysis of the data using GraphPad Prism version 3.00 for Windows (GraphPad Software, San Diego). Ki values were obtained by Cheng-Prusoff corrections of IC50 values.
T1 sequence (P35372 whole entry): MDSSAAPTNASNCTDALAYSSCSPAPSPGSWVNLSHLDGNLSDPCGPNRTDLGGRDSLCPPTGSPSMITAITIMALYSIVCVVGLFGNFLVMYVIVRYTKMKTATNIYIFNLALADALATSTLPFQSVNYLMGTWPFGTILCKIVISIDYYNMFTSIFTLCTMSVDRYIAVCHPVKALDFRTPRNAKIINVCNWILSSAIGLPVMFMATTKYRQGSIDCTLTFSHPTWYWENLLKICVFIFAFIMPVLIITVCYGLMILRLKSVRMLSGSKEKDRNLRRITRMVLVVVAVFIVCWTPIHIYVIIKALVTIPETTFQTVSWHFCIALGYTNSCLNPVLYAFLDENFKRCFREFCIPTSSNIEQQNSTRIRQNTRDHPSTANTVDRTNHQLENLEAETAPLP
(§2) The receptor binding method (DeHaven and DeHaven-Hudkins, 1998) was a modification of the method of Raynor et al. (1994). After dilution in buffer A and homogenization as before, membrane proteins (10-80 μg) in 250 μL were added to mixtures containing test compound and [^3H]diprenorphine (0.5 to 1.0 nM, 40,000 to 50,000 dpm) in 250 μL of buffer A in 96-well deep-well polystyrene titer plates (Beckman). After incubation at room temperature for one hour, the samples were filtered through GF/B filters that had been presoaked in a solution of 0.5% (w/v) polyethylenimine and 0.1% (w/v) bovine serum albumin in water. The filters were rinsed 4 times with 1 mL of cold 50 mM Tris HCl, pH 7.8 and radioactivity remaining on the filters determined by scintillation spectroscopy. Nonspecific binding was determined by the minimum values of the titration curves and was confirmed by separate assay wells containing 10 μM naloxone.
(§3) To determine the equilibrium dissociation constant for the inhibitors (Ki), radioligand bound (cpm) in the presence of various concentrations of test compounds was measured. The concentration to give half-maximal inhibition (EC50) of radioligand binding was determined from a best nonlinear regression fit to the following equation,
(§4) [formula] where Y is the amount of radioligand bound at each concentration of test compound, Bottom is the calculated amount of radioligand bound in the presence of an infinite concentration of test compound, Top is the calculated amount of radioligand bound in the absence of test compound, X is the logarithm of the concentration of test compound, and LogEC50 is the log of the concentration of test compound where the amount of radioligand bound is half-way between Top and Bottom. The nonlinear regression fit was performed using the program Prism® (GraphPad Software, San Diego, Calif.). The Ki values were then determined from the EC50 values by the following equation,
(§5) [formula] where [ligand] is the concentration of radioligand and Kd is the equilibrium dissociation constant for the radioligand.

Assay [2] concerns the target cloned human δ opioid receptor (Homo sapiens (Human), UniProt P41143). The assay is described as follows: [3H]diprenorphine receptor binding, δ opioid receptor. The conditions noted are these: inhibition of [3H]diprenorphine binding; Cheng-Prusoff correction of IC50. The method, then: as §1, §2, §3, §4, §5
Assay [3] deals with T1, cloned human μ opioid receptor. The assay is described as follows: inhibition of agonist-stimulated [35S]GTPγS binding (in vitro antagonist activity), μ opioid receptor. Type of assay: biochemical. The conditions noted are these: inhibition of loperamide (EC80)-stimulated [35S]GTPγS binding to membranes. The method, then:
The potencies of the antagonists were assessed by their abilities to inhibit agonist-stimulated [^35S]GTPγS binding to membranes containing the cloned human μ, κ, or δ opioid receptors. The agonists used were loperamide for the μ opioid receptor.
To determine the IC50 value, which was the concentration to give half-maximal inhibition of agonist-stimulated [^35S]GTPγS binding, the amount of [^35S]GTPγS bound in the presence of a fixed concentration of agonist and various concentrations of antagonist was measured. The fixed concentration of agonist was the EC80 for the agonist, which was the concentration to give 80% of the relative maximum stimulation of [^35S]GTPγS binding. The IC50 value was determined from a best nonlinear regression fit of the data to the following equation,
[formula] where Y is the amount of [^35S]GTPγS bound at each concentration of antagonist, Bottom is the calculated amount of [^35S]GTPγS bound in the presence of an infinite concentration of antagonist, Top is the calculated amount of [^35S]GTPγS bound in the absence of added antagonist, X is the logarithm of the concentration of antagonist, and LogIC50 is the logarithm of the concentration of antagonist where the amount of [^35S]GTPγS bound is halfway between Bottom and Top. The nonlinear regression fit was performed using GraphPad Prism® version 3.00 for Windows (GraphPad Software, San Diego, Calif.).
Background: GTPγS is a poorly hydrolysed GTP analogue; its binding reports G protein activation.

The target in assay [4] is cloned human κ opioid receptor (Homo sapiens (Human), UniProt P41145). Put plainly: [3H]diprenorphine receptor binding, κ opioid receptor. The conditions noted are these: inhibition of [3H]diprenorphine binding; Cheng-Prusoff correction of IC50. The method, then: as §1, §2, §3, §4, §5
Chain of cloned human κ opioid receptor (P41145 whole entry): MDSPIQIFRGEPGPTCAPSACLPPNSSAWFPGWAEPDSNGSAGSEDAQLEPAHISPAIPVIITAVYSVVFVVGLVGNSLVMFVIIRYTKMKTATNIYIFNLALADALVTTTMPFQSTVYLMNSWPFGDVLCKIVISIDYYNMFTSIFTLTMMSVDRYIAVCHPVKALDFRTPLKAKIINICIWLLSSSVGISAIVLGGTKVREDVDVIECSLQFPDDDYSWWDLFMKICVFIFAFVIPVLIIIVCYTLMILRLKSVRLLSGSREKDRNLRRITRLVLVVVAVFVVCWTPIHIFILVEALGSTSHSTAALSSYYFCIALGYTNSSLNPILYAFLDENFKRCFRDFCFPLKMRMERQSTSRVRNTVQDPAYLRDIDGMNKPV

The term Ki denotes a measure of affinity in units of concentration, obtained from inhibition or displacement. The low end stands for higher affinity, the high end for lower affinity. The term IC50 denotes the concentration needed to halve the response being measured.

Chain of cloned human δ opioid receptor (P41143 whole entry): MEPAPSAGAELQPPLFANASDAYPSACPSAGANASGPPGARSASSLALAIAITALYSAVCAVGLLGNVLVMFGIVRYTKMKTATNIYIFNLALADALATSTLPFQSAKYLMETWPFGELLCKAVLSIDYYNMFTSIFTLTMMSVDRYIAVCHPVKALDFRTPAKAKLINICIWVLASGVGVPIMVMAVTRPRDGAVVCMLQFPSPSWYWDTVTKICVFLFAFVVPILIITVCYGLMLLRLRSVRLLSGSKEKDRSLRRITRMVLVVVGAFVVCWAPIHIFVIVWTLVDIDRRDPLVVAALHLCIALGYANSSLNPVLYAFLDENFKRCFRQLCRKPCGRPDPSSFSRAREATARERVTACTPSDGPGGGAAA

For the compound `C[C@H]1CN2CCN(C(=O)c3ccccc3)C[C@H]2C[C@@]1(C)c1cccc(O)c1` [Example 2C, ((7R,8R,9αR)-8-(3-hydroxyphenyl)-7,8-dimethyl-hexahydro-1H-pyrido[1,2-α]pyrazin-2(6H)-yl)(phenyl)methanone], the Ki was 2 nM in assay [1], 25 nM in assay [2] and 190 nM in assay [4]. Moreover, the 50% inhibitory concentration (IC50) in assay [3] stood at 21 nM.
Turning to `C[C@H]1CN2C[C@H](c3ccccc3)CC[C@H]2C[C@@]1(C)c1cccc(O)c1` [Example 1, 3-((2R,3R,7S,9αS)-2,3-dimethyl-7-phenyl-octahydro-1H-quinolizin-2-yl)phenol], the Ki in assay [1] was 0.57 nM; in assay [2], 30 nM; in assay [4], 8.9 nM. In assay [3], the IC50 amounted to 0.53 nM.
For `C[C@H]1CN2C[C@H](Cc3ccccc3)NC[C@H]2C[C@@]1(C)c1cccc(O)c1` [Example 4, 3-((3S,7R,8R,9αR)-3-benzyl-7,8-dimethyl-octahydro-1H-pyrido[1,2-α]pyrazin-8-yl)phenol], the results for the Ki in assay [1], in assay [2] and in assay [4] were 8.9 nM, 36 nM and 85 nM, respectively. Moreover, the IC50 in assay [3] was 29 nM.
Consider `C[C@H]1CN2C[C@H](c3ccccc3)N(C)C[C@H]2C[C@@]1(C)c1cccc(O)c1` [Example 3B, 3-((3S,7R,8R,9αR)-2,7,8-trimethyl-3-phenyl-octahydro-1H-pyrido[1,2-α]pyrazin-8-yl)phenol], for which the results for the Ki in assay [1], in assay [2] and in assay [4] were 3.3 nM, 716 nM and 12 nM, respectively. In addition, the IC50 in assay [3] was determined as 26 nM.
On the same counts, the results for `C[C@H]1CN2CCN(Cc3ccccc3)C[C@H]2C[C@@]1(C)c1cccc(O)c1` [Example 2D, 3-((7R,8R,9αR)-2-benzyl-7,8-dimethyl-octahydro-1H-pyrido[1,2-α]pyrazin-8-yl)phenol] are 1.1 nM, 139 nM, 44 nM and 11 nM.
As for `C[C@H]1CN2CCN(CCc3ccccc3)C[C@H]2C[C@@]1(C)c1cccc(O)c1` [Example 2B, 3-((7R,8R,9αR)-7,8-dimethyl-2-phenethyl-octahydro-1H-pyrido[1,2-α]pyrazin-8-yl)phenol], the Ki was determined as 242 nM in assay [2] and 112 nM in assay [4]. The 50% inhibitory concentration (IC50) in assay [3] came out at 21 nM.
In the case of `C[C@H]1CN2C[C@H](c3ccccc3)NC[C@H]2C[C@@]1(C)c1cccc(O)c1` [Example 3A, 3-((3S,7R,8R,9αR)-7,8-dimethyl-3-phenyl-octahydro-1H-pyrido[1,2-α]pyrazin-8-yl)phenol], the values for the Ki in assay [1], in assay [2] and in assay [4] were 3.6 nM, 88 nM and 18 nM, respectively. Further, the IC50 in assay [3] stood at 12 nM.

The record behind these values is patent US8580788B2, “Opioid antagonists” (Adolor Corporation, priority 2005, dated 2013).
